≈ marks a conversion by molar mass, not a printed value. Like-named read-outs stand apart in the source and are kept apart here.
Columns and labels:
Type in all cases: cell-based
[1] = test system: spores of ATCC 630 strain; assay: Inhibition of germination of C. difficile spores (MIC), strain ATCC 630; conditions: strain 630, sodium taurocholate as germinant, BHIS medium, 37° C., OD580 for 60 min, read-out: MIC (minimum concentration that completely inhibits spore germination)
Experimental: (§1) According to a method disclosed in “The Journal of Infectious Diseases. 2013; 207: 1498-504”, spores of ATCC BBA1870, ATCC 43255 and ATCC 630 strains were obtained by culture and purification, and stored at 4° C.
(§2) Spore preparation: the C. difficile spores stored at 4° C. were heat-activated for 30 min at 65° C., centrifuged at 9,400 g for 2 min, and washed three times to remove any self-germinating spores.
(§3) Control drug: three cholic acid derivatives, a compound CamSA, a compound 20β (prepared by the method of “Journal of Medicinal Chemistry. 2017, 60 (8): 3451-3471”), and a compound 12a (prepared by the method of “Journal of Medicinal Chemistry. 2018, 61, 6759-6778”), were used as control drugs.
(§4) Compound preparation: the compound of the present disclosure, and the positive control drugs CamSA, 20β, and 12a were dissolved in DMSO, to prepare a stock solution with a concentration of 10 mM (prepared for immediate use).
(§5) The detection was conducted in a 96-well cell culture plate at a constant temperature of 37° C.; a final volume of each well of the 96-well plate was […] and a buffer was the BHIS medium; 150 μl of spores and drugs were added to the well in advance, and 50 μl of 4 mg/ml sodium taurocholate was added; OD580 was detected every 1 min immediately using a microplate reader, for continuously 60 min. A germination agent control group and a non-germination group were set up; after the detection, a final OD value of each well was compared with an initial value, and compared with the germination agent group to calculate a germination rate and an inhibition rate. A formula for the germination rate was:
(§6) Inhibition rate=100%−germination rate.

[2] = test system: spores of ATCC BBA1870 strain; assay: Inhibition of germination of C. difficile spores (MIC), strain ATCC BBA1870; conditions: strain 1870, sodium taurocholate as germinant, BHIS medium, 37° C., OD580 for 60 min, read-out: MIC (minimum concentration that completely inhibits spore germination)
Experimental: as §1, §2, §3, §4, §5, §6

[3] = test system: spores of ATCC 43255 strain; assay: Inhibition of germination of C. difficile spores (MIC), strain ATCC 43255; conditions: strain 43255, sodium taurocholate as germinant, BHIS medium, 37° C., OD580 for 60 min, read-out: MIC (minimum concentration that completely inhibits spore germination)
Experimental: as §1, §2, §3, §4, §5, §6

[4] = Clostridioides difficile, ATCC630, 1 h
[5] = Clostridioides difficile, ATCCBBA1870STRAIN, 1 h
[6] = Clostridioides difficile, ATCC43255, 1 h

Row | SMILES | MIC [1] [µM] | MIC [2] [µM] | MIC [3] [µM] | MIC [1, 4] [µM] | MIC [2, 5] [µM] | MIC [3, 6] [µM]
1 | C[C@H](CCC(=O)Nc1cccc(S(=O)(=O)O)c1)[C@H]1CC[C@H]2[C@@H]3[C@H](O)C[C@@H]4C[C@H](O)CC[C@]4(C)[C@H]3C[C@H](O)[C@]12C [CamSA, reference compound] | >256 | >256 | >256 |  |  | 
2 | C[C@H](CC(=O)NCC1CC1)[C@H]1CC[C@H]2[C@@H]3[C@H](O)C[C@@H]4C[C@H](O)CC[C@]4(C)[C@H]3CC[C@]12C [Compound I-1] |  |  |  | 32 (≈ 13.8 µg/mL) | 32 (≈ 13.8 µg/mL) | 32 (≈ 13.8 µg/mL)
3 | C[C@H](CC(=O)NCc1ccco1)[C@H]1CC[C@H]2[C@@H]3[C@H](O)C[C@@H]4C[C@H](O)CC[C@]4(C)[C@H]3CC[C@]12C [Compound I-2] |  |  |  | 8 (≈ 3.66 µg/mL) | 16 (≈ 7.32 µg/mL) | 8 (≈ 3.66 µg/mL)
4 | C[C@H](CC(=O)NCc1cccs1)[C@H]1CC[C@H]2[C@@H]3[C@H](O)C[C@@H]4C[C@H](O)CC[C@]4(C)[C@H]3CC[C@]12C [Compound I-3] |  |  |  | 4 (≈ 1.89 µg/mL) | 8 (≈ 3.79 µg/mL) | 8 (≈ 3.79 µg/mL)
5 | C[C@H](CC(=O)NCc1ccccc1)[C@H]1CC[C@H]2[C@@H]3[C@H](O)C[C@@H]4C[C@H](O)CC[C@]4(C)[C@H]3CC[C@]12C [Compound I-4] |  |  |  | 8 (≈ 3.74 µg/mL) | 32 (≈ 15 µg/mL) | 16 (≈ 7.48 µg/mL)
6 | C[C@H](CC(=O)NCc1cccnc1)[C@H]1CC[C@H]2[C@@H]3[C@H](O)C[C@@H]4C[C@H](O)CC[C@]4(C)[C@H]3CC[C@]12C [Compound I-5] |  |  |  | 32 (≈ 15 µg/mL) | 16 (≈ 7.5 µg/mL) | 16 (≈ 7.5 µg/mL)
7 | C[C@H](CC(=O)NCc1ccccn1)[C@H]1CC[C@H]2[C@@H]3[C@H](O)C[C@@H]4C[C@H](O)CC[C@]4(C)[C@H]3CC[C@]12C [Compound I-6] |  |  |  | 64 (≈ 30 µg/mL) | 64 (≈ 30 µg/mL) | 64 (≈ 30 µg/mL)
8 | C[C@H](CC(=O)NCc1nccs1)[C@H]1CC[C@H]2[C@@H]3[C@H](O)C[C@@H]4C[C@H](O)CC[C@]4(C)[C@H]3CC[C@]12C [Compound I-7] |  |  |  | 16 (≈ 7.6 µg/mL) | 16 (≈ 7.6 µg/mL) | 16 (≈ 7.6 µg/mL)
9 | CC(NC(=O)C[C@@H](C)[C@H]1CC[C@H]2[C@@H]3[C@H](O)C[C@@H]4C[C@H](O)CC[C@]4(C)[C@H]3CC[C@]12C)c1cccs1 (stereo partly drawn) [Compound I-8] |  |  |  | 4 (≈ 1.95 µg/mL) | 4 (≈ 1.95 µg/mL) | 2 (≈ 0.976 µg/mL)
10 | CC(NC(=O)C[C@@H](C)[C@H]1CC[C@H]2[C@@H]3[C@H](O)C[C@@H]4C[C@H](O)CC[C@]4(C)[C@H]3CC[C@]12C)c1ccccc1 (stereo partly drawn) [Compound I-9] |  |  |  | 8 (≈ 3.85 µg/mL) | 8 (≈ 3.85 µg/mL) | 8 (≈ 3.85 µg/mL)
11 | C[C@H](CC(=O)NCC1CC1)[C@H]1CC[C@H]2[C@@H]3[C@@H](O)C[C@@H]4C[C@H](O)CC[C@]4(C)[C@H]3CC[C@]12C [Compound I-10] |  |  |  | 32 (≈ 13.8 µg/mL) | 32 (≈ 13.8 µg/mL) | 32 (≈ 13.8 µg/mL)
12 | C[C@H](CC(=O)NCc1ccco1)[C@H]1CC[C@H]2[C@@H]3[C@@H](O)C[C@@H]4C[C@H](O)CC[C@]4(C)[C@H]3CC[C@]12C [Compound I-11] |  |  |  | 64 (≈ 29.3 µg/mL) | 64 (≈ 29.3 µg/mL) | 64 (≈ 29.3 µg/mL)
13 | C[C@H](CC(=O)NCc1cccs1)[C@H]1CC[C@H]2[C@@H]3[C@@H](O)C[C@@H]4C[C@H](O)CC[C@]4(C)[C@H]3CC[C@]12C [Compound I-12] |  |  |  | 256 (≈ 121 µg/mL) | 128 (≈ 60.6 µg/mL) | 256 (≈ 121 µg/mL)
14 | C[C@H](CC(=O)NCc1ccco1)[C@H]1CC[C@H]2[C@@H]3C(=O)C[C@@H]4C[C@H](O)CC[C@]4(C)[C@H]3CC[C@]12C [Compound I-13] |  |  |  | 16 (≈ 7.29 µg/mL) | 16 (≈ 7.29 µg/mL) | 16 (≈ 7.29 µg/mL)
15 | C[C@H](CC(=O)NCc1cccs1)[C@H]1CC[C@H]2[C@@H]3C(=O)C[C@@H]4C[C@H](O)CC[C@]4(C)[C@H]3CC[C@]12C [Compound I-14] |  |  |  | 4 (≈ 1.89 µg/mL) | 4 (≈ 1.89 µg/mL) | 4 (≈ 1.89 µg/mL)
16 | C[C@H](CC(=O)NCc1nccs1)[C@H]1CC[C@H]2[C@@H]3C(=O)C[C@@H]4C[C@H](O)CC[C@]4(C)[C@H]3CC[C@]12C [Compound I-15] |  |  |  | 32 (≈ 15.1 µg/mL) | 32 (≈ 15.1 µg/mL) | 64 (≈ 30.3 µg/mL)
17 | C[C@H](CC(=O)NCc1ccccn1)[C@H]1CC[C@H]2[C@@H]3C(=O)C[C@@H]4C[C@H](O)CC[C@]4(C)[C@H]3CC[C@]12C [Compound I-16] |  |  |  | 256 (≈ 119 µg/mL) | 256 (≈ 119 µg/mL) | 256 (≈ 119 µg/mL)
18 | C[C@H](CC(=O)NCc1ccco1)[C@H]1CC[C@H]2[C@@H]3[C@H](O)C[C@@H]4C[C@H](O)CC[C@]4(C)[C@H]3C[C@H](O)[C@]12C [Compound I-17] |  |  |  | 32 (≈ 15.2 µg/mL) | 64 (≈ 30.3 µg/mL) | 32 (≈ 15.2 µg/mL)
19 | C[C@H](CC(=O)NCc1cccs1)[C@H]1CC[C@H]2[C@@H]3[C@H](O)C[C@@H]4C[C@H](O)CC[C@]4(C)[C@H]3C[C@H](O)[C@]12C [Compound I-18] |  |  |  | 8 (≈ 3.92 µg/mL) | 32 (≈ 15.7 µg/mL) | 8 (≈ 3.92 µg/mL)
20 | CC(NC(=O)C[C@@H](C)[C@H]1CC[C@H]2[C@@H]3[C@H](O)C[C@@H]4C[C@H](O)CC[C@]4(C)[C@H]3C[C@H](O)[C@]12C)c1ccccc1 (stereo partly drawn) [Compound I-19] |  |  |  | 32 (≈ 15.9 µg/mL) | 64 (≈ 31.9 µg/mL) | 32 (≈ 15.9 µg/mL)
21 | C[C@H](CC(=O)NCc1cccs1)[C@H]1CC[C@H]2[C@@H]3C(=O)C[C@@H]4C[C@H](O)CC[C@]4(C)[C@H]3C[C@H](O)[C@]12C [Compound I-20] |  |  |  | 32 (≈ 15.6 µg/mL) | 64 (≈ 31.2 µg/mL) | 32 (≈ 15.6 µg/mL)
22 | C[C@H](CC(=O)NCc1cccs1)[C@H]1CC[C@H]2[C@@H]3[C@H](O)[C@H](O)[C@@H]4C[C@H](O)CC[C@]4(C)[C@H]3CC[C@]12C [Compound I-21] |  |  |  | 4 (≈ 1.96 µg/mL) | 8 (≈ 3.92 µg/mL) | 8 (≈ 3.92 µg/mL)
23 | CC(NC(=O)C[C@@H](C)[C@H]1CC[C@H]2[C@@H]3[C@H](O)[C@H](O)[C@@H]4C[C@H](O)CC[C@]4(C)[C@H]3CC[C@]12C)c1cccs1 (stereo partly drawn) [Compound I-22] |  |  |  | 8 (≈ 4.03 µg/mL) | 8 (≈ 4.03 µg/mL) | 8 (≈ 4.03 µg/mL)
24 | CC(NC(=O)C[C@@H](C)[C@H]1CC[C@H]2[C@@H]3C(=O)C[C@@H]4CC(=O)CC[C@]4(C)[C@H]3CC[C@]12C)c1ccccc1 (stereo partly drawn) [Compound I-23] |  |  |  | 2 (≈ 0.955 µg/mL) | 4 (≈ 1.91 µg/mL) | 2 (≈ 0.955 µg/mL)
25 | C[C@H](NC(=O)C[C@@H](C)[C@H]1CC[C@H]2[C@@H]3C(=O)C[C@@H]4CC(=O)CC[C@]4(C)[C@H]3CC[C@]12C)c1ccccc1 [Compound I-24] |  |  |  | > 256 | > 256 | > 256
26 | C[C@H](CC(=O)N[C@H](C)c1ccccc1)[C@H]1CC[C@H]2[C@@H]3C(=O)C[C@@H]4CC(=O)CC[C@]4(C)[C@H]3CC[C@]12C [Compound I-25] |  |  |  | 1 (≈ 0.478 µg/mL) | 2 (≈ 0.955 µg/mL) | 1 (≈ 0.478 µg/mL)
27 | C[C@H](CC(=O)NCc1cccs1)[C@H]1CC[C@H]2[C@@H]3C(=O)C[C@@H]4CC(=O)CC[C@]4(C)[C@H]3CC[C@]12C [Compound I-26] |  |  |  | 0.5 (≈ 0.235 µg/mL) | 0.5 (≈ 0.235 µg/mL) | 1 (≈ 0.47 µg/mL)
28 | CC(NC(=O)C[C@@H](C)[C@H]1CC[C@H]2[C@@H]3C(=O)C[C@@H]4CC(=O)CC[C@]4(C)[C@H]3CC[C@]12C)c1cccs1 (stereo partly drawn) [Compound I-27] |  |  |  | 2 (≈ 0.967 µg/mL) | 2 (≈ 0.967 µg/mL) | 2 (≈ 0.967 µg/mL)
29 | C[C@H](NC(=O)C[C@@H](C)[C@H]1CC[C@H]2[C@@H]3C(=O)C[C@@H]4CC(=O)CC[C@]4(C)[C@H]3CC[C@]12C)c1cccs1 [Compound I-28] |  |  |  | > 256 | > 256 | > 256
30 | C[C@H](CC(=O)N[C@H](C)c1cccs1)[C@H]1CC[C@H]2[C@@H]3C(=O)C[C@@H]4CC(=O)CC[C@]4(C)[C@H]3CC[C@]12C [Compound I-29] |  |  |  | 1 (≈ 0.484 µg/mL) | 1 (≈ 0.484 µg/mL) | 1 (≈ 0.484 µg/mL)
